# Laboratory results: PMC3692398 (Biochemical pharmacology, 2013)
# What was measured:
# [1] = biological target: T1, hDAT (Homo sapiens, UniProt Q01959); experiment: Inhibition of [125I]RTI-55 binding, HEK-hDAT membranes; settings: read-out: Inhibition of [125I]RTI-55 binding Ki ± sem, hDAT; HEK-hDAT membranes
# [2] = biological target: T2, hNET (Homo sapiens, UniProt P23975); experiment: biochemical; assay type: binding; settings: read-out: Inhibition of [125I]RTI-55 binding Ki ± sem, hNET; HEK-hNET membranes
# T2 sequence (P23975 whole entry): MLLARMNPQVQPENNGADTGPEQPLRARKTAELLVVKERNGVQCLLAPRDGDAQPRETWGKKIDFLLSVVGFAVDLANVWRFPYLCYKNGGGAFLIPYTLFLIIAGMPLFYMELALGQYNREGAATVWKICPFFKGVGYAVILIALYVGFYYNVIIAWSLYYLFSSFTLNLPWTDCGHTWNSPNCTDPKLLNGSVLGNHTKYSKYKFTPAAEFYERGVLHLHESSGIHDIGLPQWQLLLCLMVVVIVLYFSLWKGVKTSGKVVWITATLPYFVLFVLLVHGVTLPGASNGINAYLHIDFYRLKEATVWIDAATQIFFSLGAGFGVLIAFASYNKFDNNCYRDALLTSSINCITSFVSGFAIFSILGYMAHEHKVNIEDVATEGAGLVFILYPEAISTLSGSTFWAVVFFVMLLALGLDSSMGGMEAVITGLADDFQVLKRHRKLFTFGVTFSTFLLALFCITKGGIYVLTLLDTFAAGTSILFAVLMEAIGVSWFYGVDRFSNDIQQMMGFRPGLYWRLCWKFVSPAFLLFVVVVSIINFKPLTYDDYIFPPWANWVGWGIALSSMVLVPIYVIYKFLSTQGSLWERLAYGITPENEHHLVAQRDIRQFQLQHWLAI
# [3] = biological target: T1, hDAT; experiment: Inhibition of [3H]DA uptake, intact HEK-hDAT cells; assay type: cell-based
# [4] = biological target: T3, hSERT (Homo sapiens, UniProt P31645); experiment: Inhibition of [3H]5-HT uptake, intact HEK-hSERT cells; assay type: cell-based; settings: read-out: Inhibition of [3H]neurotransmitter uptake IC50 ± sem, hSERT [3H]5-HT; 20 nM [3H]5-HT, intact cells
# T3 sequence (P31645 whole entry): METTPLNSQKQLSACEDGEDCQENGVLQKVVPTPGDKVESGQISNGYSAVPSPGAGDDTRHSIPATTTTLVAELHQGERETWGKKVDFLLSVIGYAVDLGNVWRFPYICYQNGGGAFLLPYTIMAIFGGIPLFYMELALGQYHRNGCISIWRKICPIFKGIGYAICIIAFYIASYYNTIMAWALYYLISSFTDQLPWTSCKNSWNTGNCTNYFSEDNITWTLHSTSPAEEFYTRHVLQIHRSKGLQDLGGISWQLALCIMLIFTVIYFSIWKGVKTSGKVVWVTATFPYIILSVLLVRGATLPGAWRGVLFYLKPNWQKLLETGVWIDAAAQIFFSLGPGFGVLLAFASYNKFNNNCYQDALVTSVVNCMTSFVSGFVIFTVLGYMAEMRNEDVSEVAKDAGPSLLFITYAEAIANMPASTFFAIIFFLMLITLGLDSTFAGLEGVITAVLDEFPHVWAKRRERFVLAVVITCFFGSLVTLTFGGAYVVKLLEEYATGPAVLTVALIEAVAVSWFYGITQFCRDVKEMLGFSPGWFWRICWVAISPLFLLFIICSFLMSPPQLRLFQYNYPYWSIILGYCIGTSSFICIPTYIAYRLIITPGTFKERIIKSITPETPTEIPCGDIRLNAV
# [5] = biological target: T2, hNET; experiment: cell-based; assay type: cell-based
# [6] = biological target: T1, hDAT; experiment: Superfusion release of preloaded [3H]DA from HEK-hDAT cells; assay type: cell-based
# [7] = biological target: T3, hSERT; experiment: Superfusion release of preloaded [3H]5-HT from HEK-hSERT cells; assay type: cell-based
# [8] = biological target: T2, hNET; experiment: Superfusion release of preloaded [3H]NE from HEK-hNET cells; assay type: cell-based
# [9] = biological target: T4, hVMAT2 (Homo sapiens, UniProt Q05940); experiment: Inhibition of [3H]5-HT uptake, HEK-hVMAT2 membrane preparation; assay type: biochemical; settings: read-out: Inhibition of [3H]5-HT uptake IC50 ± sem, hVMAT2; 40 nM [3H]5-HT, 2 mM MgATP
# T4 sequence (Q05940 whole entry, the tested form may be a part): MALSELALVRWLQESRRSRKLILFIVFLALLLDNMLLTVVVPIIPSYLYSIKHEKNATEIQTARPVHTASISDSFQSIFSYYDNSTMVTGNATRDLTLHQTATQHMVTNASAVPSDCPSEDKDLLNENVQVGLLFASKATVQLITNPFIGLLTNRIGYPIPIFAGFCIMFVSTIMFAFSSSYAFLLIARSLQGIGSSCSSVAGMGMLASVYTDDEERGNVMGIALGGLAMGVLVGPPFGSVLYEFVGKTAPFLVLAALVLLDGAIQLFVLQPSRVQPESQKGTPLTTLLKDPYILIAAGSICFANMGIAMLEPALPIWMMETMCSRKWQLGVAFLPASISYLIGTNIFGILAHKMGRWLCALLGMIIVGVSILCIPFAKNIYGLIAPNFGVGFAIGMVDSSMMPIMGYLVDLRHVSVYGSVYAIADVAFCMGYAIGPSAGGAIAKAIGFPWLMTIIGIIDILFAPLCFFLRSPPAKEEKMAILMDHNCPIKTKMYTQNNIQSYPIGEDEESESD
# [10] = biological target: T4, hVMAT2; experiment: Superfusion release of preloaded [3H]NE from HEK-hVMAT2 cells; assay type: cell-based; settings: read-out: Drug-induced release of [3H]NE EC50 ± sem, hVMAT2; superfusion
# [11] = biological target: T5, h5-HT1A receptor (Homo sapiens, UniProt P08908); experiment: [3H]8-OH-DPAT binding, HEK-h5-HT1A; settings: read-out: Inhibition of radioligand binding Ki ± sem, h5-HT1A [3H]8OH-DPAT
# T5 sequence (P08908 1-422): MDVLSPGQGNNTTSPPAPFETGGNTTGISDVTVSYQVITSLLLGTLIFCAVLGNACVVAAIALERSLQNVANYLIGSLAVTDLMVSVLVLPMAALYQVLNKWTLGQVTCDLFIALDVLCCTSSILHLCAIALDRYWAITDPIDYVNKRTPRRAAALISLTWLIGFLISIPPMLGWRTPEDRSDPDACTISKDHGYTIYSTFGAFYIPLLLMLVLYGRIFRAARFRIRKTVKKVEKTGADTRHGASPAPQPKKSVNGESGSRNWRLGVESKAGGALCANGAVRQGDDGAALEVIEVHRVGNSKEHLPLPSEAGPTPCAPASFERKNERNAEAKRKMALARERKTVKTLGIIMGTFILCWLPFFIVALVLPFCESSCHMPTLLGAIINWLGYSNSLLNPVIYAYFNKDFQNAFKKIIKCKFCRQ
# [12] = biological target: T6, h5-HT2A receptor (Homo sapiens, UniProt P28223); experiment: [125I]DOI binding, HEK-h5-HT2A; settings: read-out: Inhibition of radioligand binding Ki ± sem, h5-HT2A [125I]DOI
# T6 sequence (P28223 whole entry): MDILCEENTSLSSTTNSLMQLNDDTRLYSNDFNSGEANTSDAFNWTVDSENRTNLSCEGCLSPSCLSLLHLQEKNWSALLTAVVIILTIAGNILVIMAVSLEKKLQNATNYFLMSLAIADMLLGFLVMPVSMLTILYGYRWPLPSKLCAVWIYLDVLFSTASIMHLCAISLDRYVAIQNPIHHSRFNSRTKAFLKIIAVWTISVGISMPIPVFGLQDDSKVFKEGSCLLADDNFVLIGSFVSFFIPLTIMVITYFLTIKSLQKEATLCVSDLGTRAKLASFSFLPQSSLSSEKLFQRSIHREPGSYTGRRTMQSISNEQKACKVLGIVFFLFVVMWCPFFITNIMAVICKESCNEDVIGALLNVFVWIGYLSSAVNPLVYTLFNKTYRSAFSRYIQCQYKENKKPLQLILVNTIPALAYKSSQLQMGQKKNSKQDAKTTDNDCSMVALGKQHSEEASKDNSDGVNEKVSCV
# [13] = biological target: T7, h5-HT2C receptor (Homo sapiens, UniProt P28335); experiment: biochemical; assay type: binding; settings: read-out: Inhibition of radioligand binding Ki ± sem, h5-HT2C [125I]DOI
# T7 sequence (P28335 33-458): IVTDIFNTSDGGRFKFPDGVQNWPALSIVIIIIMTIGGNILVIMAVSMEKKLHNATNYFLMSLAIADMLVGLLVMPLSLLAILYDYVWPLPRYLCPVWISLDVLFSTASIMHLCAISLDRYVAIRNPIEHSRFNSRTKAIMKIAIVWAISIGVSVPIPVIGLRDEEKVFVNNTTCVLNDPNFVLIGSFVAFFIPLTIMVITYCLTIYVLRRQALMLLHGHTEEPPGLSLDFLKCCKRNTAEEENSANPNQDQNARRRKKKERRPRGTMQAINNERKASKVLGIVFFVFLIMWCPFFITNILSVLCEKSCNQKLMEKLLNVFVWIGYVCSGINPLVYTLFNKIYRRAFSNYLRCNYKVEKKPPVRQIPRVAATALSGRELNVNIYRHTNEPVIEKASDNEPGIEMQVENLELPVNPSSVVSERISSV
# [14] = biological target: T5, h5-HT1A receptor; experiment: Stimulation of [35S]GTPγS binding, HEK-h5-HT1A membranes; assay type: biochemical
# [15] = biological target: T6, h5-HT2A receptor; experiment: Inhibition of 5-HT-stimulated IP-1 formation; assay type: cell-based; settings: 100 nM 5-HT
# [16] = biological target: T7, h5-HT2C receptor; experiment: Inhibition of 5-HT-stimulated IP-1 formation; assay type: cell-based; settings: 100 nM 5-HT; normalized to maximal inhibition by SB242084 (1 µM)
# [17] = biological target: hSigma1 receptor (Homo sapiens, UniProt Q99720); experiment: [3H]; assay type: binding; settings: read-out: Inhibition of [3H]pentazocine binding Ki ± sem, hSigma1
# Sequence of hSigma1 receptor (Q99720 whole entry): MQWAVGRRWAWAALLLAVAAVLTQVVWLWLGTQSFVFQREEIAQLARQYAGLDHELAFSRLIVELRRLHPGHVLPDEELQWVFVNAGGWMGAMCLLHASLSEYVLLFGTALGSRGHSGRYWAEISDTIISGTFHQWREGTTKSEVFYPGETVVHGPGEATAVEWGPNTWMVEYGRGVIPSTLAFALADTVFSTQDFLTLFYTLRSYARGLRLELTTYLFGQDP
# [18] = overdose with a bath salt product containing 4-FMC and MDPV; ref [44]; cited from earlier work
# T1 sequence (Q01959 whole entry): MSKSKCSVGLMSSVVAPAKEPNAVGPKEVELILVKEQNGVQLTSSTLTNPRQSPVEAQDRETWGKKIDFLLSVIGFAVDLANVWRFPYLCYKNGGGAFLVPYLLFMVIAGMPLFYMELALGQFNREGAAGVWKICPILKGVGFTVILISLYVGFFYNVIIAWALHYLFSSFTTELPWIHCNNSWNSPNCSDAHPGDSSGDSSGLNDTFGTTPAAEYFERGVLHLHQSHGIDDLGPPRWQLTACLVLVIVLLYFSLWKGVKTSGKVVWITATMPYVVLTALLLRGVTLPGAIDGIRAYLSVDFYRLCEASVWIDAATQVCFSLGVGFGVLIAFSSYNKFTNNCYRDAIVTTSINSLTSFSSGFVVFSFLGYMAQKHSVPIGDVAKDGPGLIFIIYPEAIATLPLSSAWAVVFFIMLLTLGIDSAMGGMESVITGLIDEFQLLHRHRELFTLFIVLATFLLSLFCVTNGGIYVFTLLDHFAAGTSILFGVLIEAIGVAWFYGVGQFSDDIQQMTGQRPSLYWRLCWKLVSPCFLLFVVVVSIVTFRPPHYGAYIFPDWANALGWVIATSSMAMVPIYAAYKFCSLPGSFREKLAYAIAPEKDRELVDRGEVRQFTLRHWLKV
structure (smiles),measurement,setting,value
"CNC(C)C(=O)c1ccc(F)cc1 (stereo not drawn) [4-FMC, 4-fluoromethcathinone]",Ki,[1],10.4 ± 3.3 µM
same,Ki,[2],35 ± 10 µM
same,"ratio of binding Ki to uptake IC50, hDAT",[3]; [125I]RTI-55 Ki / [3H]DA uptake IC50,38
same,IC50,"[3]; read-out: Inhibition of [3H]neurotransmitter uptake IC50 ± sem, hDAT [3H]DA, 20 nM [3H]DA, intact cells",0.273 ± 0.074 µM
same,IC50,[4],> 10 µM
same,"ratio of binding Ki to uptake IC50, hNET",[5]; [125I]RTI-55 Ki / [3H]NE uptake IC50,276
same,IC50,"[5]; read-out: Inhibition of [3H]neurotransmitter uptake IC50 ± sem, hNET [3H]NE, 20 nM [3H]NE, intact cells",0.127 ± 0.02 µM
same,"% maximum release ± sem, hDAT [3H]DA",[6],98 ± 14%
same,time of peak/maximal [3H]DA release after addition of drug,"[6]; 4-FMC 10 µM to 300 µM, mephedrone 30 µM, methylone 100 µM",about 6 min
same,fold less potent than METH to induce [3H]DA release,[6]; EC50 compared to METH,45 fold
same,EC50,"[6]; read-out: Drug-induced release of [3H]neurotransmitter EC50 ± sem, hDAT [3H]DA, superfusion, AUC",17.8 ± 7.6 µM
same,"% maximum release ± sem, hSERT [3H]5-HT",[7],39.3 ± 9.7%
same,time of peak [3H]5-HT release after addition of drug,[7],about 6 min
same,EC50,"[7]; read-out: Drug-induced release of [3H]neurotransmitter EC50 ± sem, hSERT [3H]5-HT, superfusion, AUC",39 ± 14 µM
same,time of peak [3H]NE release after addition of drug,[8],8 to 16 min
same,EC50,"[8]; read-out: Drug-induced release of [3H]neurotransmitter EC50 ± sem, hNET [3H]NE, superfusion, AUC",1.53 ± 0.43 µM
same,"% maximum release ± sem, hNET [3H]NE",[8]; relative to maximal AUC induced by METH (0.3 or 1 µM),194 ± 58%
same,IC50,[9],178 ± 36 µM
same,EC50,[10],> 100 µM
same,Ki,[11],71.6 ± 3.4 µM
same,Ki,[12],10 ± 1 µM
same,Ki,[13],12.6 ± 2.4 µM
same,h5-HT1A Stimulation of [35S]GTPγS binding % maximum stimulation ± sem,[14]; normalized to the maximal stimulation by 5-HT,70.7 ± 8.3%
same,EC50,[14]; read-out: h5-HT1A Stimulation of [35S]GTPγS binding EC50 ± sem,156 ± 3.4 µM
same,h5-HT2A Inhibition of 5-HT-stimulated IP-1 formation % maximum inhibition ± sem,[15]; normalized to maximal inhibition by ketanserin (10 µM),97.0 ± 1.6%
same,IC50,[15]; read-out: h5-HT2A Inhibition of 5-HT-stimulated IP-1 formation IC50 ± sem,23.6 ± 3 µM
same,h5-HT2C Inhibition of 5-HT-stimulated IP-1 formation % maximum inhibition ± sem,[16],15 ± 20%
same,Ki,[17],24.2 ± 9 µM
same,serum concentration in overdose,[18],346 ng/mL
same,serum concentration in overdose (molar),[18],~ 1.6 uM
